# Assay results from patent publication US20220151236A1, “NOVEL OXADIAZOLE COMPOUNDS FOR CONTROLLING OR PREVENTING PHYTOPATHOGENIC FUNGI” (PI INDUSTRIES LTD., priority 2019, published 2022).
# Structures can show the parent of a compound that is named as a salt.
# Test system: Phakopsora pachyrhizi
# Test: Phakopsora pachyrhizi Test on Soybean (preventive activity, greenhouse)
# Assay type: in vivo
# Settings: preventive spray on young Soybean plants, inoculated one day after treatment, rated 3, 7, 10 and 15 days after application, read-out: Efficacy (% control), disease severity compared to the untreated check
# Procedure: Compounds were dissolved in 2% dimethyl sulfoxide/acetone and then mixed with water containing an emulsifier to a calibrated spray volume of 50 mL. This 50 mL spray solution was poured into spray bottles for further applications. To test the preventive activity of compounds, healthy young Soybean plants raised in the greenhouse were sprayed with the active compound preparation at the stated application rates inside the spray cabinets using hollow cone nozzles. One day after treatment, the plants were inoculated with a spore suspension containing 2×10^5 Phakopsora pachyrhizi conidia. The inoculated plants were then kept in a greenhouse chamber at 22-24° C. temperature and 80-90% relative humidity for disease expression. A visual assessment of the compound's performance was carried out by rating the disease severity (0-100% scale) on treated plants 3, 7, 10 and 15 days after application. Efficacy (% control) of the compounds was calculated by comparing the disease rating in the treatment with the one of the untreated control. The sprayed plants were also assessed for plant compatibility by recording symptoms like necrosis, chlorosis and stunting.
row,Compound,pest or weed control at 500 ppm [%]
1,"O=C(NCc1cccc(Cl)c1)c1cn2ccc(-c3noc(C(F)(F)F)n3)cc2n1 [Compound 40, N-(3-chlorobenzyl)-7-(5-(trifluoromethyl)-1,2,4-oxadiazol-3-yl)imidazo[1,2-a]pyridine-2-carboxamide]",≥ 70
2,"COc1cccc(CNC(=O)c2cn3ccc(-c4noc(C(F)(F)F)n4)cc3n2)c1 [Compound 41, N-(3-methoxybenzyl)-7-(5-(trifluoromethyl)-1,2,4-oxadiazol-3-yl)imidazo[1,2-a]pyridine-2-carboxamide]",≥ 70
3,"O=C(NCc1ccccc1F)c1cn2ccc(-c3noc(C(F)(F)F)n3)cc2n1 [Compound 42, N-(2-fluorobenzyl)-7-(5-(trifluoromethyl)-1,2,4-oxadiazol-3-yl)imidazo[1,2-a]pyridine-2-carboxamide]",≥ 70
4,"CN(C)c1ccc(CNC(=O)c2cn3ccc(-c4noc(C(F)(F)F)n4)cc3n2)cc1 [Compound 43, N-(4-(dimethylamino)benzyl)-7-(5-(trifluoromethyl)-1,2,4-oxadiazol-3-yl)imidazo[1,2-a]pyridine-2-carboxamide]",≥ 70
5,"O=C(NCc1ccc(Cl)c(Cl)c1)c1cn2ccc(-c3noc(C(F)(F)F)n3)cc2n1 [Compound 44, N-(3,4-dichlorobenzyl)-7-(5-(trifluoromethyl)-1,2,4-oxadiazol-3-yl)imidazo[1,2-a]pyridine-2-carboxamide]",≥ 70
6,"CCOC(=O)c1cn2ccc(-c3noc(C(F)(F)F)n3)cc2n1 [Compound 45, ethyl 7-(5-(trifluoromethyl)-1,2,4-oxadiazol-3-yl)imidazo[1,2-a]pyridine-2-carboxylate hydrobromide]",≥ 70
7,"FC(F)(F)c1nc(-c2ccn3cc(CSc4ccc(Cl)cc4)nc3c2)no1 [Compound 47, 3-(2-(((4-chlorophenyl)thio)methyl)imidazo[1,2-a]pyridin-7-yl)-5-(trifluoromethyl)-1,2,4-oxadiazole]",≥ 70
8,"Fc1ccc(SCc2cn3ccc(-c4noc(C(F)(F)F)n4)cc3n2)cc1 [Compound 48, 3-(2-(((4-fluorophenyl)thio)methyl)imidazo[1,2-a]pyridin-7-yl)-5-(trifluoromethyl)-1,2,4-oxadiazole]",≥ 70
9,"O=S(=O)(Cc1cn2ccc(-c3noc(C(F)(F)F)n3)cc2n1)c1ccc(F)cc1 [Compound 57, 3-(2-(((4-fluorophenyl)sulfonyl)methyl)imidazo[1,2-a]pyridin-7-yl)-5-(trifluoromethyl)-1,2,4-oxadiazole]",≥ 70
10,"O=S(=O)(Cc1cn2ccc(-c3noc(C(F)(F)F)n3)cc2n1)c1ccccc1 [Compound 58, 3-(2-((phenylsulfonyl)methyl)imidazo[1,2-a]pyridin-7-yl)-5-(trifluoromethyl)-1,2,4-oxadiazole]",≥ 70
11,"O=S(=O)(Cc1cn2ccc(-c3noc(C(F)(F)F)n3)cc2n1)c1ccccc1F [Compound 59, 3-(2-(((2-fluorophenyl)sulfonyl)methyl)imidazo[1,2-a]pyridin-7-yl)-5-(trifluoromethyl)-1,2,4-oxadiazole]",≥ 70
12,"O=C(NCc1ccc(C(F)(F)F)cc1)c1cn2cc(-c3noc(C(F)(F)F)n3)ccc2n1 [Compound 63, 6-(5-(trifluoromethyl)-1,2,4-oxadiazol-3-yl)-N-(4-(trifluoromethyl)benzyl)imidazo[1,2-a]pyridine-2-carboxamide]",≥ 70
13,"O=C(c1cn2cc(-c3noc(C(F)(F)F)n3)ccc2n1)N1CCOCC1 [Compound 64, morpholino(6-(5-(trifluoromethyl)-1,2,4-oxadiazol-3-yl)imidazo[1,2-a]pyridin-2-yl)methanone]",≥ 70
14,"CC(C)CNC(=O)c1cn2cc(-c3noc(C(F)(F)F)n3)ccc2n1 [Compound 66, N-isobutyl-6-(5-(trifluoromethyl)-1,2,4-oxadiazol-3-yl)imidazo[1,2-a]pyridine-2-carboxamide]",≥ 70
15,"O=C(NC1CCCC1)c1cn2cc(-c3noc(C(F)(F)F)n3)ccc2n1 [Compound 67, N-cyclopentyl-6-(5-(trifluoromethyl)-1,2,4-oxadiazol-3-yl)imidazo[1,2-a]pyridine-2-carboxamide]",≥ 70
16,"COC1CCN(C(=O)c2cn3cc(-c4noc(C(F)(F)F)n4)ccc3n2)C1 (stereo not shown) [Compound 68, (3-methoxypyrrolidin-1-yl)(6-(5-(trifluoromethyl)-1,2,4-oxadiazol-3-yl)imidazo[1,2-a]pyridin-2-yl)methanone]",≥ 70
17,"O=C(NCC1CC1)c1cn2cc(-c3noc(C(F)(F)F)n3)ccc2n1 [Compound 70, N-(cyclopropylmethyl)-6-(5-(trifluoromethyl)-1,2,4-oxadiazol-3-yl)imidazo[1,2-a]pyridine-2-carboxamide]",≥ 70

row,Compound,pest or weed control at 500 ppm [%]
1,"CN(Cc1ccccc1)C(=O)c1cn2cc(-c3noc(C(F)(F)F)n3)ccc2n1 [Compound 71, N-benzyl-N-methyl-6-(5-(trifluoromethyl)-1,2,4-oxadiazol-3-yl)imidazo[1,2-a]pyridine-2-carboxamide]",≥ 70
2,"CC(NC(=O)c1cn2cc(-c3noc(C(F)(F)F)n3)ccc2n1)c1ccccc1 (stereo not shown) [Compound 72, N-(1-phenylethyl)-6-(5-(trifluoromethyl)-1,2,4-oxadiazol-3-yl)imidazo[1,2-a]pyridine-2-carboxamide]",≥ 70
3,"N#CC1(NC(=O)c2cn3cc(-c4noc(C(F)(F)F)n4)ccc3n2)CC1 [Compound 73, N-(1-cyanocyclopropyl)-6-(5-(trifluoromethyl)-1,2,4-oxadiazol-3-yl)imidazo[1,2-a]pyridine-2-carboxamide]",≥ 70
4,"O=C(NCc1cccc(Cl)c1)c1cn2cc(-c3noc(C(F)(F)F)n3)ccc2n1 [Compound 75, N-(3-chlorobenzyl)-6-(5-(trifluoromethyl)-1,2,4-oxadiazol-3-yl)imidazo[1,2-a]pyridine-2-carboxamide]",≥ 70
5,"COc1cccc(CNC(=O)c2cn3cc(-c4noc(C(F)(F)F)n4)ccc3n2)c1 [Compound 76, N-(3-methoxybenzyl)-6-(5-(trifluoromethyl)-1,2,4-oxadiazol-3-yl)imidazo[1,2-a]pyridine-2-carboxamide]",≥ 70
6,"O=C(NCc1ccc(Cl)cc1)c1cn2cc(-c3noc(C(F)(F)F)n3)ccc2n1 [Compound 77, N-(4-chlorobenzyl)-6-(5-(trifluoromethyl)-1,2,4-oxadiazol-3-yl)imidazo[1,2-a]pyridine-2-carboxamide]",≥ 70
7,"CC(C)CN(C)C(=O)c1cn2cc(-c3noc(C(F)(F)F)n3)ccc2n1 [Compound 78, N-isobutyl-N-methyl-6-(5-(trifluoromethyl)-1,2,4-oxadiazol-3-yl)imidazo[1,2-a]pyridine-2-carboxamide]",≥ 70
8,"CCOC(=O)c1cn2cc(-c3noc(C(F)(F)F)n3)ccc2n1 [Compound 79, ethyl 6-(5-(trifluoromethyl)-1,2,4-oxadiazol-3-yl)imidazo[1,2-a]pyridine-2-carboxylate]",≥ 70
9,"COc1ccc(C(=O)NCc2cn3cc(-c4noc(C(F)(F)F)n4)ccc3n2)cc1 [Compound 82, 4-methoxy-N-((6-(5-(trifluoromethyl)-1,2,4-oxadiazol-3-yl)imidazo[1,2-a]pyridin-2-yl)methyl)benzamide]",≥ 70
10,"O=C(NCc1cn2cc(-c3noc(C(F)(F)F)n3)ccc2n1)c1ccc(Cl)cc1 [Compound 83, 4-chloro-N-((6-(5-(trifluoromethyl)-1,2,4-oxadiazol-3-yl)imidazo[1,2-a]pyridin-2-yl)methyl)benzamide]",≥ 70
11,"CCC(=O)NCc1cn2cc(-c3noc(C(F)(F)F)n3)ccc2n1 [Compound 88, N-((6-(5-(trifluoromethyl)-1,2,4-oxadiazol-3-yl)imidazo[1,2-a]pyridin-2-yl)methyl)propionamide]",≥ 70
12,"O=C(NCc1cn2cc(-c3noc(C(F)(F)F)n3)ccc2n1)c1ccc(F)cc1 [Compound 90, 4-fluoro-N-((6-(5-(trifluoromethyl)-1,2,4-oxadiazol-3-yl)imidazo[1,2-a]pyridin-2-yl)methyl)benzamide]",≥ 70
13,"O=C(NCc1cn2cc(-c3noc(C(F)(F)F)n3)ccc2n1)c1cccc(F)c1 [Compound 93, 3-fluoro-N-((6-(5-(trifluoromethyl)-1,2,4-oxadiazol-3-yl)imidazo[1,2-a]pyridin-2-yl)methyl)benzamide]",≥ 70
14,"O=C(NCc1cn2cc(-c3noc(C(F)(F)F)n3)ccc2n1)c1ccncc1 [Compound 99, N-((6-(5-(trifluoromethyl)-1,2,4-oxadiazol-3-yl)imidazo[1,2-a]pyridin-2-yl)methyl)isonicotinamide]",≥ 70
15,"COc1ccc(SCc2cn3cc(-c4noc(C(F)(F)F)n4)ccc3n2)cc1 [Compound 100, 3-(2-(((4-methoxyphenyl)thio)methyl)imidazo[1,2-a]pyridin-6-yl)-5-(trifluoromethyl)-1,2,4-oxadiazole]",≥ 70
16,"FC(F)(F)c1nc(-c2ccc3nc(CSc4ccccc4)cn3c2)no1 [Compound 101, 3-(2-((phenylthio)methyl)imidazo[1,2-a]pyridin-6-yl)-5-(trifluoromethyl)-1,2,4-oxadiazole]",≥ 70
17,"Fc1cccc(SCc2cn3cc(-c4noc(C(F)(F)F)n4)ccc3n2)c1 [Compound 104, 3-(2-(((3-fluorophenyl)thio)methyl)imidazo[1,2-a]pyridin-6-yl)-5-(trifluoromethyl)-1,2,4-oxadiazole]",≥ 70
